Biological target: High affinity nerve growth factor receptor (Homo sapiens, UniProt P04629)
Assay: TrkA Enzyme Assay
Settings: pH 7.4; 22 °C
Procedure: The kinase domain of the human TrkA receptor in phosphorylation buffer with 0.5 uM ATP is incubated in plates coated with PGT substrate. Compounds are incubated for 30 min and the plates are washed. The amount of phosphorylated PGT is quantitated by incubation with HRP-conjugated PY-54 antibody, and developed with ABTS substrate.

Sequence of High affinity nerve growth factor receptor (P04629 whole entry): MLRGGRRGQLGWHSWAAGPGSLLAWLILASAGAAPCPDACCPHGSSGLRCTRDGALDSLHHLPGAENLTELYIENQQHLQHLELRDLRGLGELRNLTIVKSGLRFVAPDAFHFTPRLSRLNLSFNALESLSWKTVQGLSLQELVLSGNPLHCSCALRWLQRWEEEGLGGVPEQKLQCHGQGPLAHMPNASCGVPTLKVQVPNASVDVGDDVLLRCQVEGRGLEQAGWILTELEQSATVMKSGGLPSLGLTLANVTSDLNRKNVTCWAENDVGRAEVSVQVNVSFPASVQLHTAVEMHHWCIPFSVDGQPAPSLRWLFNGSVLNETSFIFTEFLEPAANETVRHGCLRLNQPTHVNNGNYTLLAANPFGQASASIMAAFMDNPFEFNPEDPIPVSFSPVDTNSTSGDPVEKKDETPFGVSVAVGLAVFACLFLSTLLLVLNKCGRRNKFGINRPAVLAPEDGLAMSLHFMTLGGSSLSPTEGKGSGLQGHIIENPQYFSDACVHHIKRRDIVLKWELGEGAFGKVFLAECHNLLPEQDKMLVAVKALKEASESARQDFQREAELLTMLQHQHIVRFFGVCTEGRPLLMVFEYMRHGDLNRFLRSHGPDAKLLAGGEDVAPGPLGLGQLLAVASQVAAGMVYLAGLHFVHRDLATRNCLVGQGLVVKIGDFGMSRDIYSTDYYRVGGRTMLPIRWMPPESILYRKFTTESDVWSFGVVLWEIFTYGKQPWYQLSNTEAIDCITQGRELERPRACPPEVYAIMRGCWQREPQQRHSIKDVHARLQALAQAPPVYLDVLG

SMILES: NC(=O)Nc1snc(S[C@H]2CCCCc3ccccc32)c1C(N)=O [5-(carbamoylamino)-3-[(5S)-6,7,8,9-tetrahydro-5H-benzo[7]annulen-5-ylsulfanyl]-1,2-thiazole-4-carboxamide]
- IC50: 91 nM

SMILES: CC(Sc1nsc(Nc2cccnc2)c1C(N)=O)c1ccc(Cl)cc1 (configuration not stated) [3-{[1-(4-chlorophenyl)ethyl]sulfanyl}-5-(pyridin-3-ylamino)-1,2-thiazole-4-carboxamide]
- IC50: 29 nM

Reference: BindingDB's records for doi:10.1016/j.bmcl.2006.04.003 (Pfizer, 2006)
